Source: patent publication US12319655B2, “RAF kinase inhibitors and methods of use thereof” (Deciphera Pharmaceuticals, LLC, priority 2021, dated 2025)
pIC50: −log10 of the molar value. Like-named read-outs stand apart in the source and are kept apart here.

Tests used:
[1] = target: B-Raf kinase (SEQ. ID NO: 2) (Homo sapiens (Human), UniProt P15056); test: Biochemical Assay for B-Raf (1); details: Table J
In short: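 IC50 derived by four-parameter sigmoidal fit of percent inhibition, normalised to uninhibited and reference-inhibitor controls, using reaction rates over 4–5 h. Coupled spectrophotometric readout (NADH loss at 340 nm, 6 h, 30° C.); 1 mM ATP, 30.1 nM MEK, 0.13 nM B-Raf, pH 7.5 Tris buffer, 1% DMSO.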

A375 cells = test: A375 Cell Proliferation Assay (1); type: cell-based; details: Homo sapiens, A-375
In short: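 Resazurin fluorescence (excitation 540 nm, emission 600 nm, after a further 5-6 h) gave IC50s from triplicate compound dilution series.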

Miapaca-2 cells = test: MiaPaca-2 Cell Proliferation Assay (1); type: cell-based; details: Homo sapiens, MIA PaCa-2, single agent, read-out: MiaPaca2 (1) IC50
In short: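 Resazurin was added after compound exposure and incubated 5-6 h, then fluorescence read at 540 nm excitation and 600 nm emission to give IC50.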

H2405 cells = test: H2405 Cell Proliferation Assay (1); type: cell-based; details: Homo sapiens, NCI-H2405
In short: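 Viability was read by resazurin reduction (ex 540 nm, em 600 nm; 5-6 h with 40 μL of 440 μM stock) after 67-72 h compound exposure at 37 °C.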

[2] = assay version (1), read-out: BRAF (1) IC50
[3] = biochemical assay (1), read-out: BRAF (1)

Sequence of B-Raf kinase (SEQ. ID NO: 2) (P15056 416-766): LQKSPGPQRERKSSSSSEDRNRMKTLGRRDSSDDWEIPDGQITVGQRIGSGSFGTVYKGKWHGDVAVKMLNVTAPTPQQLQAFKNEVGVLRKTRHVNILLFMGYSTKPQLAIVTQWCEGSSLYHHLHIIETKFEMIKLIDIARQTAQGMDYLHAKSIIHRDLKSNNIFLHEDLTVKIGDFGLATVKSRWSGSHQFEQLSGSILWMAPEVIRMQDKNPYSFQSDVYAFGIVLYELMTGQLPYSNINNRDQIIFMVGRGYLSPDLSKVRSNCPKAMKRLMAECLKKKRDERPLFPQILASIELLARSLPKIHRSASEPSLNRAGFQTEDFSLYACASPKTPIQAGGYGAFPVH

## CC(=O)Nc1cc(-c2cc(-c3cc(NC(=O)c4ccnc(C(F)(F)F)c4)ccc3C)cc(OCCO)n2)ccn1 [Example 1, N-(3-(2′-acetamido-6-(2-hydroxyethoxy)-[2,4′-bipyridin]-4-yl)-4-methylphenyl)-2-(trifluoromethyl)isonicotinamide]
[1]; [2]
  pIC50: ≥ 7.00
A375 cells
  pIC50: ≥ 7.00
Miapaca-2 cells
  pIC50: 6.30 to 7.00

## CC(=O)Nc1cc(-c2cc(-c3cc(NC(=O)c4ccnc(C(F)(F)F)c4)c(F)cc3C)ccn2)ccn1 [Example 2]
[1]; [2]
  pIC50: ≥ 7.00
A375 cells
  pIC50: 6.30 to 7.00
Miapaca-2 cells
  pIC50: 5.00 to 6.00

## CC(=O)Nc1cc(-c2cc(-c3cc(NC(=O)c4cccc(C)c4)ccc3C)ccn2)ccn1 [Example 32]
[1]; [2]
  pIC50: ≥ 7.00
A375 cells
  pIC50: 6.00 to 6.30
Miapaca-2 cells
  pIC50: 5.00 to 6.00

## Cc1cc(F)c(NC(=O)c2ccnc(C(F)(F)F)c2)cc1-c1ccnc(-c2ccnc(NC=O)c2)c1 [Example 35]
[1]; [2]
  pIC50: ≥ 7.00
A375 cells
  pIC50: 6.00 to 6.30
Miapaca-2 cells
  pIC50: 5.00 to 6.00

## CC(=O)Nc1cc(-c2cc(-c3cc(NC(=O)c4ccnc(C(F)(F)F)c4)cnc3C)ccn2)ccn1 [Example 36]
[1]; [2]
  pIC50: ≥ 7.00
A375 cells
  pIC50: 6.00 to 6.30
Miapaca-2 cells
  pIC50: 5.00 to 6.00

## CC(=O)Nc1cc(-c2cc(-c3cc(NC(=O)c4cccc(C(F)(F)F)c4)cnc3C)ccn2)ccn1 [Example 37]
[1]; [2]
  pIC50: ≥ 7.00
A375 cells
  pIC50: ≥ 7.00
Miapaca-2 cells
  pIC50: 5.00 to 6.00

## Cc1ccc(NC(=O)c2ccnc(C(F)(F)F)c2)cc1-c1ccnc(-c2ccnc(NC(=O)CC#N)c2)c1 [Example 39, N-(3-(2′-(2-cyanoacetamido)-[2,4′-bipyridin]-4-yl)-4-methylphenyl)-2-(trifluoromethyl)isonicotinamide]
[1]; [2]
  pIC50: ≥ 7.00
A375 cells
  pIC50: 6.00 to 6.30
Miapaca-2 cells
  pIC50: 5.00 to 6.00

## CNC(=O)c1cc(-c2cc(-c3cc(NC(=O)c4ccnc(C)c4)ccc3C)ccn2)ccn1 [Example 40]
[1]; [2]
  pIC50: ≥ 7.00
A375 cells
  pIC50: 5.00 to 6.00
Miapaca-2 cells
  pIC50: 5.00 to 6.00

## Cc1ccc(NC(=O)c2ccnc(C(C)(C)C#N)c2)cc1-c1cncc(-c2ccnc3c2CC(=O)N3)n1 [Example 43]
[1]; [2]
  pIC50: ≥ 7.00
A375 cells
  pIC50: 6.00 to 6.30
Miapaca-2 cells
  pIC50: 5.00 to 6.00

## Cc1ccc(NC(=O)c2ccnc(C(F)(F)F)c2)cc1-c1ccnc(-c2ccnc(NC=O)c2)c1 [Example 46]
[1]; [2]
  pIC50: ≥ 7.00
A375 cells
  pIC50: 5.00 to 6.00
Miapaca-2 cells
  pIC50: 5.00 to 6.00

## CNC(=O)c1cc(-c2cncc(-c3cc(NC(=O)c4ccnc(C(F)(F)F)c4)ccc3C)n2)ccn1 [Example 47]
[1]; [2]
  pIC50: ≥ 7.00
A375 cells
  pIC50: 5.00 to 6.00
Miapaca-2 cells
  pIC50: 5.00 to 6.00

## Cc1cc(-c2cc(-c3cc(NC(=O)c4ccnc(C(C)(C)C#N)c4)ccc3C)ccn2)ccn1 [Example 49]
[1]; [2]
  pIC50: 6.30 to 7.00
A375 cells
  pIC50: 6.00 to 6.30
Miapaca-2 cells
  pIC50: 5.00 to 6.00

## COCC(=O)Nc1cc(-c2cccc(-c3cc(NC(=O)c4ccnc(C(F)(F)F)c4)ccc3C)c2)ccn1 [Example 57]
[1]; [2]
  pIC50: ≥ 7.00
A375 cells
  pIC50: 6.30 to 7.00
Miapaca-2 cells
  pIC50: 5.00 to 6.00

## CC(=O)Nc1cc(-c2cc(-c3cc(NC(=O)c4ccnc(C)c4)ccc3C)ncn2)ccn1 [Example 59]
[1]; [2]
  pIC50: ≥ 7.00
A375 cells
  pIC50: 5.00 to 6.00
Miapaca-2 cells
  pIC50: 5.00 to 6.00

## CNC(=O)c1cc(-c2cc(-c3cc(NC(=O)c4ccnc(C)c4)ccc3C)ncn2)ccn1 [Example 60]
[1]; [2]
  pIC50: 6.30 to 7.00
A375 cells
  pIC50: 5.00 to 6.00
Miapaca-2 cells
  pIC50: 5.00 to 6.00

## COCC(=O)Nc1cc(-c2cc(-c3cc(NC(=O)c4ccnc(C(C)(C)C#N)c4)ccc3C)ccn2)ccn1 [Example 61]
[1]; [2]
  pIC50: ≥ 7.00
A375 cells
  pIC50: ≥ 7.00
Miapaca-2 cells
  pIC50: 5.00 to 6.00

## Cc1ccc(NC(=O)c2ccnc(C(F)(F)F)c2)cc1-c1cccc(-c2ccnc(NC(=O)CC#N)c2)c1 [Example 62]
[1]; [2]
  pIC50: ≥ 7.00
A375 cells
  pIC50: 6.30 to 7.00
Miapaca-2 cells
  pIC50: 5.00 to 6.00

## Cc1ccc(NC(=O)c2ccnc(C(C)(C)C#N)c2)cc1-c1ccnc(-c2ccnc(NC(=O)CC#N)c2)c1 [Example 63]
[1]; [2]
  pIC50: ≥ 7.00
A375 cells
  pIC50: 6.30 to 7.00
Miapaca-2 cells
  pIC50: 5.00 to 6.00

## CC(=O)Nc1cc(-c2cccc(-c3cc(NC(=O)c4ccnc(C(F)(F)F)c4)cnc3C)c2)ccn1 [Example 64]
[1]; [2]
  pIC50: ≥ 7.00
A375 cells
  pIC50: 6.30 to 7.00
Miapaca-2 cells
  pIC50: 5.00 to 6.00

## CC(=O)Nc1cc(-c2cc(-c3cc(NC(=O)c4ccnc(C(F)(F)F)c4)ccc3F)cc(C)n2)ccn1 [Example 65]
[1]; [2]
  pIC50: ≥ 7.00
A375 cells
  pIC50: 6.00 to 6.30
Miapaca-2 cells
  pIC50: 5.00 to 6.00

## Cc1ncc(NC(=O)c2ccnc(C(F)(F)F)c2)cc1-c1cccc(-c2ccnc(NC(=O)C3CC3)c2)c1 [Example 70]
[1]; [2]
  pIC50: ≥ 7.00
A375 cells
  pIC50: 6.30 to 7.00
Miapaca-2 cells
  pIC50: 5.00 to 6.00

## Cc1cc(-c2cc(NC(=O)c3ccnc(C(F)(F)F)c3)ccc2F)cc(-c2ccnc(NC(=O)C3CC3)c2)n1 [Example 72]
[1]; [2]
  pIC50: ≥ 7.00
A375 cells
  pIC50: 5.00 to 6.00
Miapaca-2 cells
  pIC50: 5.00 to 6.00

## CNC(=O)c1cc(-c2cccc(-c3cc(NC(=O)c4ccnc(C(F)(F)F)c4)cnc3C)c2)ccn1 [Example 73]
[1]; [2]
  pIC50: 6.30 to 7.00
A375 cells
  pIC50: 5.00 to 6.00
Miapaca-2 cells
  pIC50: 5.00 to 6.00

## CC(=O)Nc1cc(-c2cc(-c3cc(NC(=O)c4ccnc(C(C)(C)C#N)c4)c(F)cc3C)ccn2)ccn1 [Example 75]
[1]; [2]
  pIC50: ≥ 7.00
A375 cells
  pIC50: ≥ 7.00
Miapaca-2 cells
  pIC50: 5.00 to 6.00

## Cc1cc(F)c(NC(=O)c2ccnc(C(C)(C)C#N)c2)cc1-c1ccnc(-c2ccnc(NC(=O)C3CC3)c2)c1 [Example 76]
[1]; [2]
  pIC50: ≥ 7.00
A375 cells
  pIC50: ≥ 7.00
Miapaca-2 cells
  pIC50: 5.00 to 6.00

## CNC(=O)c1cc(-c2nccc(-c3cc(NC(=O)c4ccnc(C(C)(C)C#N)c4)ccc3C)n2)ccn1 [Example 78]
[1]; [2]
  pIC50: 6.30 to 7.00
A375 cells
  pIC50: ≥ 7.00
Miapaca-2 cells
  pIC50: 5.00 to 6.00

## CC(=O)Nc1cc(-c2cccc(-c3cc(NC(=O)c4ccnc(C(C)(C)C#N)c4)ccc3C)c2)ncn1 [Example 79]
[1]; [2]
  pIC50: ≥ 7.00
A375 cells
  pIC50: ≥ 7.00
Miapaca-2 cells
  pIC50: 5.00 to 6.00

## CNC(=O)c1cc(-c2cncc(-c3cc(C(=O)Nc4cnn(C(C)C)c4)ccc3C)n2)ccn1 [Example 81]
[1]; [2]
  pIC50: 6.30 to 7.00
A375 cells
  pIC50: 5.00 to 6.00
H2405 cells
  pIC50: 5.00 to 6.00

## CC(=O)Nc1cc(-c2cc(-c3cc(NC(=O)c4ccnc(C(F)(F)F)c4)ccc3C)nc(C)n2)ccn1 [Example 83]
[1]; [2]
  pIC50: ≥ 7.00
A375 cells
  pIC50: 6.30 to 7.00
Miapaca-2 cells
  pIC50: 5.00 to 6.00

## CC(=O)Nc1cc(-c2cc(-c3cc(NC(=O)c4ccnc(C(F)(F)F)c4)ccc3C)ncn2)ccn1 [Example 84]
[1]; [2]
  pIC50: ≥ 7.00
A375 cells
  pIC50: 6.30 to 7.00
Miapaca-2 cells
  pIC50: 5.00 to 6.00

## CC(=O)Nc1cc(-c2cncc(-c3cc(C(=O)Nc4cnn(C(C)C)c4)ccc3C)n2)ccn1 [Example 87]
[1]; [2]
  pIC50: ≥ 7.00
A375 cells
  pIC50: 6.00 to 6.30
Miapaca-2 cells
  pIC50: 5.00 to 6.00

## COCC(=O)Nc1cc(-c2nccc(-c3cc(NC(=O)c4ccnc(C(C)(C)C#N)c4)ccc3C)n2)ccn1 [Example 88]
[1]; [2]
  pIC50: ≥ 7.00
A375 cells
  pIC50: ≥ 7.00
Miapaca-2 cells
  pIC50: 5.00 to 6.00

## CC(=O)Nc1cc(-c2cc(-c3cc(NC(=O)c4ccnc(C(C)(C)C#N)c4)ccc3C)nc(C)n2)ccn1 [Example 89]
[1]; [2]
  pIC50: 6.30 to 7.00
A375 cells
  pIC50: 6.30 to 7.00
Miapaca-2 cells
  pIC50: 5.00 to 6.00

## Cc1ccc(NC(=O)c2ccnc(C(F)(F)F)c2)cc1-c1cncc(-c2ccnc(N)c2)n1 [Example 90]
[1]; [2]
  pIC50: 6.30 to 7.00
A375 cells
  pIC50: 5.00 to 6.00
Miapaca-2 cells
  pIC50: 5.00 to 6.00

## CC(=O)Nc1cc(-c2ccnc(-c3cc(NC(=O)c4ccnc(C(F)(F)F)c4)ccc3C)n2)ccn1 [Example 92]
[1]; [2]
  pIC50: ≥ 7.00
A375 cells
  pIC50: 6.30 to 7.00
Miapaca-2 cells
  pIC50: 5.00 to 6.00

## Cc1ccc(NC(=O)c2cn(C(C)C)nc2C)cc1-c1cc(-c2ccnc(NC(=O)C3CC3)c2)cnn1 [Example 373]
[1]; [3]
  pIC50: ≥ 7.00
A375 cells
  pIC50: 5.00 to 6.00
H2405 cells
  pIC50: 5.00 to 6.00

## CNC(=O)c1cc(-c2cnnc(-c3cc(NC(=O)CCC4(F)CC4)cnc3C)c2)ccn1 [Example 374]
[1]; [3]
  pIC50: 5.00 to 6.00
A375 cells
  pIC50: 5.00 to 6.00
H2405 cells
  pIC50: 5.00 to 6.00

## COC(=O)Nc1cc(-c2cnnc(-c3cc(NC(=O)c4ccnc(C(C)(C)F)c4)ccc3C)c2)ccn1 [Example 375]
[1]; [3]
  pIC50: ≥ 7.00
A375 cells
  pIC50: 6.30 to 7.00
H2405 cells
  pIC50: 6.30 to 7.00

## CNC(=O)c1cc(-c2ccnc(-c3cc(NC(=O)c4ccnc(C(C)(C)C#N)c4)ccc3C)c2)ccn1 [Example 376]
[1]; [3]
  pIC50: 6.30 to 7.00
A375 cells
  pIC50: ≥ 7.00
H2405 cells
  pIC50: 6.30 to 7.00
